In ChEMBL document CHEMBL1157124, “Synthesis and anticancer evaluation of alpha-lipoic acid derivatives” (Bioorg Med Chem Lett, 2010):

Experiments:
Type in all cases: functional
[1] = system: Bel-7402; test: Cytotoxicity against human Bel7402 cells assessed as growth inhibition at 100 ug/ml after 24 hrs by MTT assay; settings: Bel-7402, 24 h, read-out: GI
[2] = Cytotoxicity against human HO8910 cells assessed as growth inhibition at 10 ug/ml after 24 hrs by MTT assay; settings: HO-8910, 24 h, read-out: GI
[3] = system: KB; test: Cytotoxicity against human KB cells assessed as growth inhibition at 1 ug/ml after 24 hrs by MTT assay; settings: read-out: GI
[4] = system: NCI-H460; test: Cytotoxicity against human NCI-H460 cells assessed as growth inhibition at 1 ug/ml after 24 hrs by MTT assay; settings: NCI-H460, 24 h, read-out: GI
[5] = Cytotoxicity against human HO8910 cells assessed as growth inhibition at 1 ug/ml after 24 hrs by MTT assay; settings: HO-8910, 24 h, read-out: GI
[6] = system: KB; test: Cytotoxicity against human KB cells assessed as growth inhibition at 10 ug/ml after 24 hrs by MTT assay; settings: read-out: GI
[7] = system: Bel-7402; test: Cytotoxicity against human Bel7402 cells assessed as growth inhibition at 10 ug/ml after 24 hrs by MTT assay; settings: Bel-7402, 24 h, read-out: GI
[8] = system: NCI-H460; test: Cytotoxicity against human NCI-H460 cells assessed as growth inhibition at 0.1 ug/ml after 24 hrs by MTT assay; settings: NCI-H460, 24 h, read-out: GI
[9] = system: Bel-7402; test: Cytotoxicity against human Bel7402 cells assessed as growth inhibition at 1 ug/ml after 24 hrs by MTT assay; settings: Bel-7402, 24 h, read-out: GI
[10] = system: NCI-H460; test: Cytotoxicity against human NCI-H460 cells assessed as growth inhibition at 10 ug/ml after 24 hrs by MTT assay; settings: NCI-H460, 24 h, read-out: GI
[11] = system: KB; test: Cytotoxicity against human KB cells assessed as growth inhibition at 100 ug/ml after 24 hrs by MTT assay; settings: read-out: GI
[12] = Cytotoxicity against human HO8910 cells assessed as growth inhibition at 100 ug/ml after 24 hrs by MTT assay; settings: HO-8910, 24 h, read-out: GI
[13] = system: NCI-H460; test: Cytotoxicity against human NCI-H460 cells assessed as growth inhibition at 100 ug/ml after 24 hrs by MTT assay; settings: NCI-H460, 24 h, read-out: GI
[14] = Cytotoxicity against human HO8910 cells assessed as growth inhibition at 0.1 ug/ml after 24 hrs by MTT assay; settings: HO-8910, 24 h, read-out: GI
[15] = system: Bel-7402; test: Cytotoxicity against human Bel7402 cells assessed as growth inhibition at 0.1 ug/ml after 24 hrs by MTT assay; settings: Bel-7402, 24 h, read-out: GI
[16] = system: KB; test: Cytotoxicity against human KB cells assessed as growth inhibition at 0.1 ug/ml after 24 hrs by MTT assay; settings: read-out: GI

`O=C(CCCCC1CCSS1)Nc1ccc(Br)cn1` (stereo unspecified) gave an inhibition of growth at 100 µg/mL [1] of 45.5%, an inhibition of growth at 10 µg/mL [2] of 29.6% and an inhibition of growth at 1 µg/mL [3] of 4.33%. For the same compound, the inhibition of growth at 1 µg/mL [4] was 13.1%, the inhibition of growth at 1 µg/mL [5] was 4.27% and the inhibition of growth at 10 µg/mL [6] was 35.1%. For the same compound, the inhibition of growth at 10 µg/mL [7] was 24.5%, the inhibition of growth at 0.1 µg/mL [8] was 9% and the inhibition of growth at 1 µg/mL [9] was 13.1%. It also gave an inhibition of growth at 10 µg/mL [10] of 38%, an inhibition of growth at 100 µg/mL [11] of 42.3% and an inhibition of growth at 100 µg/mL [12] of 32.1%. For the same compound, the inhibition of growth at 100 µg/mL [13] was 52%.
`O=C(CCCCC1CCSS1)Nc1ccccn1` (stereo unspecified) showed an inhibition of growth at 0.1 µg/mL [14] of 1.14%, an inhibition of growth at 100 µg/mL [1] of 37.6% and an inhibition of growth at 1 µg/mL [4] of 0.81%. The inhibition of growth at 10 µg/mL [7] was 5.77%, the inhibition of growth at 0.1 µg/mL [15] was 0.89% and the inhibition of growth at 0.1 µg/mL [8] was 2.61%. It also gave an inhibition of growth at 100 µg/mL [11] of 25.1%, an inhibition of growth at 100 µg/mL [12] of 51.9% and an inhibition of growth at 100 µg/mL [13] of 39.3%.
Work on `CC(=O)SCCC(CCCCC(=O)Nc1cccc(Cl)c1)SC(C)=O` (stereo unspecified) yielded an inhibition of growth at 0.1 µg/mL [14] of 0.27%, an inhibition of growth at 0.1 µg/mL [16] of 5.72% and an inhibition of growth at 100 µg/mL [1] of 20.8%. It also gave an inhibition of growth at 1 µg/mL [3] of 0.04%, an inhibition of growth at 1 µg/mL [4] of 0.31% and an inhibition of growth at 0.1 µg/mL [15] of 3.72%. It also gave an inhibition of growth at 1 µg/mL [9] of 0.56%, an inhibition of growth at 10 µg/mL [10] of 2.09% and an inhibition of growth at 100 µg/mL [11] of 48.8%. It also gave an inhibition of growth at 100 µg/mL [12] of 38.1% and an inhibition of growth at 100 µg/mL [13] of 42.8%.
`O=C(CCCCC(S)CCS)Nc1ccc(Br)cn1` (stereo unspecified) gave an inhibition of growth at 100 µg/mL [1] of 41.1%, an inhibition of growth at 10 µg/mL [2] of 29.4% and an inhibition of growth at 1 µg/mL [3] of 2.51%. For the same compound, the inhibition of growth at 1 µg/mL [4] was 10.7%, the inhibition of growth at 1 µg/mL [5] was 2.51% and the inhibition of growth at 10 µg/mL [6] was 34.1%. For the same compound, the inhibition of growth at 10 µg/mL [7] was 23.2%, the inhibition of growth at 0.1 µg/mL [8] was 6.4% and the inhibition of growth at 1 µg/mL [9] was 4.71%. The inhibition of growth at 10 µg/mL [10] was 39.2%, the inhibition of growth at 100 µg/mL [11] was 59.2% and the inhibition of growth at 100 µg/mL [12] was 56.8%. It also gave an inhibition of growth at 100 µg/mL [13] of 55.9%.
`O=C(CCCCC(CCSC(=O)c1ccccc1)SC(=O)c1ccccc1)Nc1ccccc1` (stereo unspecified) showed an inhibition of growth at 0.1 µg/mL [14] of 3.12%, an inhibition of growth at 0.1 µg/mL [16] of 1.52% and an inhibition of growth at 1 µg/mL [4] of 5.93%. The inhibition of growth at 1 µg/mL [5] was 3.79%, the inhibition of growth at 10 µg/mL [6] was 2.67% and the inhibition of growth at 0.1 µg/mL [8] was 0.6%. For the same compound, the inhibition of growth at 10 µg/mL [10] was 11.4%.
Work on `O=C(CCCCC(S)CCS)Nc1ccccc1Cl` (stereo unspecified) yielded an inhibition of growth at 0.1 µg/mL [14] of 6.11%, an inhibition of growth at 1 µg/mL [4] of 8.19% and an inhibition of growth at 1 µg/mL [5] of 7.72%. It also gave an inhibition of growth at 0.1 µg/mL [15] of 5.11%, an inhibition of growth at 0.1 µg/mL [8] of 6.36% and an inhibition of growth at 1 µg/mL [9] of 3.08%. The inhibition of growth at 10 µg/mL [10] was 18.2% and the inhibition of growth at 100 µg/mL [13] was 12.1%.
Work on `O=C(CCCCC(S)CCS)Nc1cccc(Cl)c1` (stereo unspecified) yielded an inhibition of growth at 100 µg/mL [1] of 16.1%, an inhibition of growth at 1 µg/mL [4] of 7.2% and an inhibition of growth at 10 µg/mL [7] of 3.22%. It also gave an inhibition of growth at 0.1 µg/mL [15] of 3.09%, an inhibition of growth at 0.1 µg/mL [8] of 9.78% and an inhibition of growth at 1 µg/mL [9] of 1.14%. The inhibition of growth at 100 µg/mL [11] was 8.04% and the inhibition of growth at 100 µg/mL [13] was 24.8%.
`O=C(CCCCC(CCSC(=O)c1ccccc1)SC(=O)c1ccccc1)Nc1ccc(Cl)cc1` (stereo unspecified) gave an inhibition of growth at 0.1 µg/mL [14] of 3.68%, an inhibition of growth at 0.1 µg/mL [16] of 16.9% and an inhibition of growth at 1 µg/mL [3] of 11.7%. It also gave an inhibition of growth at 1 µg/mL [4] of 9.8%, an inhibition of growth at 1 µg/mL [5] of 1.29% and an inhibition of growth at 10 µg/mL [6] of 10.6%. The inhibition of growth at 10 µg/mL [7] was 4.87%, the inhibition of growth at 0.1 µg/mL [15] was 9.2% and the inhibition of growth at 0.1 µg/mL [8] was 9.36%. For the same compound, the inhibition of growth at 1 µg/mL [9] was 9.62%, the inhibition of growth at 10 µg/mL [10] was 12.6% and the inhibition of growth at 100 µg/mL [11] was 5.78%.
